pIC50: −log10 of the molar value.
Assays:
RL cells = assay: Proliferation of RL cells (Cell Titer-Glo); conditions: Homo sapiens, B cells, outcome-based, read-out: IC50 Proliferation RL cells (Non-Hodjkin lymphoma)
[1] = tested on: NF-kB pathway, Ramos cells; assay: NFkB/Ramos reporter assay; conditions: Homo sapiens, read-out: IC50 Cell-based selectivity: NF-kB pathway Ramos cells
Description: Cells were plated on the day prior to the assay. Media required included:
• 1. Cells were harvest from culture in Growth Medium and resuspend in Assay Medium at a density of 1.6×10^6 cells/ml. • 2. 32 μl per well of Assay medium were added to the cell-free control wells. 32 μl per well of a cell suspension were added to Unstimulated and Stimulated wells • 3. After plating, the plates were incubated in a 37° C./5% CO2 incubator for 16-20 hours. Preparation of DMSO Solution:
A solution was prepared of 5% DMSO solution (10×) in Assay Media.
A solution was prepared of 10×TNFα solution in Assay Medium. It is recommended to run a dose response curve to determine the EC80 for the Stimulation Solution.
• 1. 4 μl of 10×DMSO solution was added to each well. • 2. 4 μl of Assay Medium was added to the Unstimulated wells and to the Cell-Free wells. • 3. 4 μl of the 10×TNFα was added to the Stimulated wells. • 4. The assay plate was incubated in a humidified 37° C./5% CO2 incubator for 5 hours. Substrate Loading and Incubation
This protocol is designed for loading cells with LiveBLAzer™-FRET B/G Substrate (CCF4-AM) or CCF2-AM. If alternative substrates are used it is recommended to follow the loading protocol provided with the substrate. […]
Added 934 μl Solution C to the combined solutions from above step and vortexed. • 3. […] The cells were counted and then spun cells down and resuspended in 4° C. […]

Namalwa cells = assay: Proliferation of Namalwa cells (Cell Titer-Glo); conditions: Homo sapiens, B-cell, outcome-based, read-out: IC50 Proliferation Namalwa cells (Burkitt's Lymphoma)
NALM-6 cells = assay: Proliferation of NALM-6 cells (cell proliferation index, flow cytometry); conditions: Homo sapiens, B cells, outcome-based, read-out: IC50 Proliferation NALM-6 cells (ALL)
Description: Cell proliferation of the human B cell precursor leukemia tumor cell line NALM-6 was measured by a cell proliferation index assay. This assay was based on the dilution rate of a fluorescent membrane marker which is directly linked to the cell division. Briefly, the assay was performed by loading the cells with a non-toxic fluorescent phospholipid analog before the seeding. The probe inserts stably into the plasmic membrane and was distributed between daughter cells after division. Flow cytometry analysis of the fluorescent probe was performed directly after the loading of the cells and after 96 hours of culture. The dilution rate of the fluorescent probe at the single cell level was directly correlated to the number of cell divisions. All experiments were performed in triplicate.
Detection of cellular events was performed in triplicate in 96 well-plates after 72 hours of treatment by automated flow cytometry. Non-linear regressions were performed with GraphPad Prism 4.01 software.
Cells were previously thawed and amplified in standard culture conditions (37° C., 5% CO2). NALM-6 cells were cultivated in RPMI 1640+10% inactivated Fetal Bovine Serum. […]
Day 4: After 72 hours of treatment, the cells were analyzed by automated flow cytometry.

Mouse PK (PO) = conditions: in vivo
Ramos cells = assay: Proliferation of Ramos cells (Cell Titer-Glo); conditions: Homo sapiens, B cells, outcome-based, read-out: IC50 Proliferation Ramos cells (Burkitt's lymphoma)

**Q.** With `O=C(CN1CCOCC1)Nc1cccc(-c2nc(-c3c[nH]c(C(=O)N4CCCC4)c3)cs2)c1` [7A, 2-morpholino-N-(3-(4-(5-(pyrrolidine-1-carbonyl)-1H-pyrrol-3-yl)thiazol-2-yl)phenyl)acetamide] as the molecule, how does the pIC50 (RL cells) read?
**A.** Its pIC50 is 4.59.

**Q.** What about the pIC50 [1] of the same molecule?
**A.** The pIC50 was under 4.00.

**Q.** And the pIC50 (Namalwa cells)?
**A.** The pIC50 was 4.55.

**Q.** What about the pIC50 (NALM-6 cells) of the same molecule?
**A.** Its pIC50 is 6.32.

**Q.** What about the bioavailability (Mouse PK (PO); read-out: Mouse PK (PO) % F) of the same molecule?
**A.** The bioavailability was 88%.

**Q.** And the half-life (Mouse PK (PO); read-out: Mouse PK (PO) T½ (converted))?
**A.** The half-life was 3.2 h.

**Q.** And the pIC50 (Ramos cells)?
**A.** The pIC50 was 6.27.
